The source made the active and inactive calls. Cut-off read from the data, not from the text of the source, for most assays here: actives have a measured Kd and inactives only a lower limit.
Assays:
[1] = biological target: Adenylate kinase 2, mitochondrial (Homo sapiens, UniProt P54819)
[2] = biological target: Serine/threonine-protein kinase MRCK alpha (Homo sapiens, UniProt Q5VT25)
[3] = biological target: Casein kinase I isoform alpha (Homo sapiens, UniProt P48729)
Ephrin type-A receptor 4 = Ephrin type-A receptor 4 (Homo sapiens, UniProt P54764)
[4] = biological target: Fibroblast growth factor receptor 1 (Homo sapiens, UniProt P11362)
[5] = biological target: Tyrosine-protein kinase FRK (Homo sapiens, UniProt P42685)
[6] = biological target: Tyrosine-protein kinase Fyn (Homo sapiens, UniProt P06241)
[7] = biological target: Interleukin-1 receptor-associated kinase 1 (Homo sapiens, UniProt P51617)
[8] = biological target: Mitogen-activated protein kinase 11 (Homo sapiens, UniProt Q15759)
[9] = biological target: Maternal embryonic leucine zipper kinase (Homo sapiens, UniProt Q14680)
[10] = biological target: Ribosomal protein S6 kinase alpha-4 (Homo sapiens, UniProt O75676)
[11] = biological target: T1, Structural maintenance of chromosomes protein 1A (Homo sapiens, UniProt Q14683)
T1 sequence (Q14683 whole entry): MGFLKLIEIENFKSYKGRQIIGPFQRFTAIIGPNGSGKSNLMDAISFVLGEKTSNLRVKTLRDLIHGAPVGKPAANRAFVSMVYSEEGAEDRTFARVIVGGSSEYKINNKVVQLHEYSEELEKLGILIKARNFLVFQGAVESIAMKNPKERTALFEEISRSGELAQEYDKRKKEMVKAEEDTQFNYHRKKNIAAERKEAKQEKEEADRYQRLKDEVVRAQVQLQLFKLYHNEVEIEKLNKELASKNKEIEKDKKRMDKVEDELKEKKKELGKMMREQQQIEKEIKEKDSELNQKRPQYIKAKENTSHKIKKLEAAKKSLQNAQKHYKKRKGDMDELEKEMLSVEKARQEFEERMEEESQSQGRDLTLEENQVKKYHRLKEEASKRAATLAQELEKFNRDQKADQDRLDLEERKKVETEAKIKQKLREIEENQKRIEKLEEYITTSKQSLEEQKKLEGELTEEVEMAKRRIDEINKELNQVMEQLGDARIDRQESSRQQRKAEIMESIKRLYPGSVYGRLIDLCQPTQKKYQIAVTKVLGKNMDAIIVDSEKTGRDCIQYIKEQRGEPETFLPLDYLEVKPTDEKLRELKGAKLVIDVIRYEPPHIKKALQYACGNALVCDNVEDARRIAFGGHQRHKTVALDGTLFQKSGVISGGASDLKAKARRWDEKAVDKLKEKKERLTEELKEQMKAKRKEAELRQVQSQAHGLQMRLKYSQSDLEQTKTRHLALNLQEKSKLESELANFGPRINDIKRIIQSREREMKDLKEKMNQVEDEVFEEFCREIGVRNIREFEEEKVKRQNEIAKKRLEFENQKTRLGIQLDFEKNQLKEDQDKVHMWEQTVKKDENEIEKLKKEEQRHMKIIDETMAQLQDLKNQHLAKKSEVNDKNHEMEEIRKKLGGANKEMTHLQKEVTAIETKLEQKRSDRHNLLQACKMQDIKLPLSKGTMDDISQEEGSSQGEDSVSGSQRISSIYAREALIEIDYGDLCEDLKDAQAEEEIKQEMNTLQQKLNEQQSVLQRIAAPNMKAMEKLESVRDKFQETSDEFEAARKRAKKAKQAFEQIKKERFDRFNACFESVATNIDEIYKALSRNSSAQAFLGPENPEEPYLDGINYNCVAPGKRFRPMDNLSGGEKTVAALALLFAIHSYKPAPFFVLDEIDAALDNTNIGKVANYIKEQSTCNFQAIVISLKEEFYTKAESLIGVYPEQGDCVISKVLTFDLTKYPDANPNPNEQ

[12] = biological target: Proto-oncogene tyrosine-protein kinase Src (Homo sapiens, UniProt P12931)
[13] = biological target: T2, Serine/threonine-protein kinase 3 (Homo sapiens, UniProt Q13188)
T2 sequence (Q13188 whole entry): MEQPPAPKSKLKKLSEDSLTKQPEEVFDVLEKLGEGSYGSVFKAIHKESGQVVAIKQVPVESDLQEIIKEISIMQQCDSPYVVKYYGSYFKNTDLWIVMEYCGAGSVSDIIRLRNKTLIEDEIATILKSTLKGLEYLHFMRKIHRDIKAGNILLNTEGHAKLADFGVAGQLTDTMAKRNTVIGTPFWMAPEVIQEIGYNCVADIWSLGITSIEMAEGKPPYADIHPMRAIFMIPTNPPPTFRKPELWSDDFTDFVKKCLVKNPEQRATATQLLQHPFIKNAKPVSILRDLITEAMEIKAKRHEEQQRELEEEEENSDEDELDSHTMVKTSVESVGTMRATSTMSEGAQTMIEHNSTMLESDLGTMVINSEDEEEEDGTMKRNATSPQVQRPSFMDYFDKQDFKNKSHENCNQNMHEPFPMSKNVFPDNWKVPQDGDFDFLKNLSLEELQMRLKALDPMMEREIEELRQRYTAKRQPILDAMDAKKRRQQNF
Note: in the data inactive means no Kd found up to 30 µM.

Chain of Tyrosine-protein kinase Fyn (P06241 whole entry): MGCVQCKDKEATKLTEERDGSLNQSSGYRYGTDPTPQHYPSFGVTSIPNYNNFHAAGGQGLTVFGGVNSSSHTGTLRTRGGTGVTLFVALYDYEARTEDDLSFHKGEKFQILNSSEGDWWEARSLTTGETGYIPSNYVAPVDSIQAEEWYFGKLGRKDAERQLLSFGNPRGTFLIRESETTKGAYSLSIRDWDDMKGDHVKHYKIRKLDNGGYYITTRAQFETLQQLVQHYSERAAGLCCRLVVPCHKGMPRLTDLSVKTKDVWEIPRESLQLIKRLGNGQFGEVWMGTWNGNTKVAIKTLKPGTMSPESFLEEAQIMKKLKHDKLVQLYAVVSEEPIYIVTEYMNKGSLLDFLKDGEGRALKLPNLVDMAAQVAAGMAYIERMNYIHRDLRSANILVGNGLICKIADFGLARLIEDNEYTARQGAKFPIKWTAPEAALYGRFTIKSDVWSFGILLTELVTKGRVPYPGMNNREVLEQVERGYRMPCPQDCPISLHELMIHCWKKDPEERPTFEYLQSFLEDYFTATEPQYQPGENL
Chain of Mitogen-activated protein kinase 11 (Q15759 whole entry): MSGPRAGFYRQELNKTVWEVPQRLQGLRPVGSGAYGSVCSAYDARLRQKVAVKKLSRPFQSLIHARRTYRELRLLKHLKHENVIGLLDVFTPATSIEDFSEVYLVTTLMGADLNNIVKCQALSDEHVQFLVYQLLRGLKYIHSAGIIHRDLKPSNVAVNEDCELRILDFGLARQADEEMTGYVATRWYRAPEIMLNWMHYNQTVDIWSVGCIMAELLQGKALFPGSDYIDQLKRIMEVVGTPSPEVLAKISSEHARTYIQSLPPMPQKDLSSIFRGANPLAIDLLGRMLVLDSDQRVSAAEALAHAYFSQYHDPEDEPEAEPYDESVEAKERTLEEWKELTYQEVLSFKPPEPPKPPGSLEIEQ
Chain of Fibroblast growth factor receptor 1 (P11362 whole entry): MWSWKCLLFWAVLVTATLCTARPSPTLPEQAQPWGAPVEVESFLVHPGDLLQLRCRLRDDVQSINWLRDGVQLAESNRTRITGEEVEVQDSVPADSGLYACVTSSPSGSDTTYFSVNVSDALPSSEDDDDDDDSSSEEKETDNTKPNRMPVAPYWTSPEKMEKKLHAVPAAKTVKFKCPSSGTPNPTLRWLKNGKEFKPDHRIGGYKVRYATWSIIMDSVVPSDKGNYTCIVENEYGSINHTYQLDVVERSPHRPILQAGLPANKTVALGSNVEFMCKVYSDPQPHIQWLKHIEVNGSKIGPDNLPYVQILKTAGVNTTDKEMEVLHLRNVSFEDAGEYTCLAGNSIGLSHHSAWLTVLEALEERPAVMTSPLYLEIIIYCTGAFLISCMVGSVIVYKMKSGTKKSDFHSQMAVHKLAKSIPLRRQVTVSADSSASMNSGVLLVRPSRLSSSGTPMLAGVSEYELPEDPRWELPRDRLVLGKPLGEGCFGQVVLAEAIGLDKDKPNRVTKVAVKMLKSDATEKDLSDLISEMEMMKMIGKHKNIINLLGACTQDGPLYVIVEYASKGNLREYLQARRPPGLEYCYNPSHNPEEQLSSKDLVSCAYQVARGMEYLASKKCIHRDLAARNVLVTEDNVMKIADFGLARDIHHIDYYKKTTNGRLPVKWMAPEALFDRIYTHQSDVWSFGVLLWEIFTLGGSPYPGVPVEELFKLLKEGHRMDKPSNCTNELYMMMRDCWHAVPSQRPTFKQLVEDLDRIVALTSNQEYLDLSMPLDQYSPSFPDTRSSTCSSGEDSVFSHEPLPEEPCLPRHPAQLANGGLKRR
Chain of Proto-oncogene tyrosine-protein kinase Src (P12931 2-536 limits assumed): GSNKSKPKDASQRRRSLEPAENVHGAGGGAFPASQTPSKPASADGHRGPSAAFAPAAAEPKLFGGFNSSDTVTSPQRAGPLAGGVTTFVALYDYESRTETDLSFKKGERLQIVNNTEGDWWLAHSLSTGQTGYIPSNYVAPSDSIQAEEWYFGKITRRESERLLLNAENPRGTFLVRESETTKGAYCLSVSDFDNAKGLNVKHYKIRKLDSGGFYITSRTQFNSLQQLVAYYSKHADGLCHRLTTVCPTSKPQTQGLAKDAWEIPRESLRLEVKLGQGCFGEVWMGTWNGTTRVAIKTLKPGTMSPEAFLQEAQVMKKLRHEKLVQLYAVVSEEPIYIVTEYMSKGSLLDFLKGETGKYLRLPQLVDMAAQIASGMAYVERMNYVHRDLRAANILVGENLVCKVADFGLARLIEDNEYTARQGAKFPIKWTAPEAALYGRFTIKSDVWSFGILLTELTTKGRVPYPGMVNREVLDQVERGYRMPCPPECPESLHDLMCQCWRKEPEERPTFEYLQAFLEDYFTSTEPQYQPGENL
Chain of Tyrosine-protein kinase FRK (P42685 whole entry): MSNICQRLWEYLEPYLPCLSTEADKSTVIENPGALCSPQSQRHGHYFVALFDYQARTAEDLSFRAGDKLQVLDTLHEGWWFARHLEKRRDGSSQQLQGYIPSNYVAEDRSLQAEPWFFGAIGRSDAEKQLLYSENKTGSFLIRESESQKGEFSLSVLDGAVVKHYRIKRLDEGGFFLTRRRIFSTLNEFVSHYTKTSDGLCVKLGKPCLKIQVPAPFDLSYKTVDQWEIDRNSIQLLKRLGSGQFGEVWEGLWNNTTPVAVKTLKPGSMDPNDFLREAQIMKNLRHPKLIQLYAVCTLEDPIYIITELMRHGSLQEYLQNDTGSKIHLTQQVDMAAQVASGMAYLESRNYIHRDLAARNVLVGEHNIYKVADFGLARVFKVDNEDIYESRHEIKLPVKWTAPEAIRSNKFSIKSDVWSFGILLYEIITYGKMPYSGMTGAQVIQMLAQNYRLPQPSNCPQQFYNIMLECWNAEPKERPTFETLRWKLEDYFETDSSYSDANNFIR
Chain of Interleukin-1 receptor-associated kinase 1 (P51617 whole entry): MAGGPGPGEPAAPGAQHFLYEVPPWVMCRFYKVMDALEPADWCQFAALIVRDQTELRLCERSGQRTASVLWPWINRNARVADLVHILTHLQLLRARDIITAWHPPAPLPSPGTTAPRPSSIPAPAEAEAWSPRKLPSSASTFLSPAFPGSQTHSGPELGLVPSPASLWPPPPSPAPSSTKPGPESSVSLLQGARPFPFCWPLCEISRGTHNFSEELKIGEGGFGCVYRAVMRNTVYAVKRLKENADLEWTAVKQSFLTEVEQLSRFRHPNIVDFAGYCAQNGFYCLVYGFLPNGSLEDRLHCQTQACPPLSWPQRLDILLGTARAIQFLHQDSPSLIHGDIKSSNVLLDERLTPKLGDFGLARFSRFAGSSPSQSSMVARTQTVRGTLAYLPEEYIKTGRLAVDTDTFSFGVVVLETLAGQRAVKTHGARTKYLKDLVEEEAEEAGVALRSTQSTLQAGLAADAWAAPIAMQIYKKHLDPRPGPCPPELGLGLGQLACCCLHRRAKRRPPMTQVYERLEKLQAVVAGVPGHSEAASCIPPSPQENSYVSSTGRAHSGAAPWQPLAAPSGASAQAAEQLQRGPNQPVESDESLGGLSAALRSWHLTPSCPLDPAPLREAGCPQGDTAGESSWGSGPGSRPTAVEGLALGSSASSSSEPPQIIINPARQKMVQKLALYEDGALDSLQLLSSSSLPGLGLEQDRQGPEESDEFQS
Chain of Ephrin type-A receptor 4 (P54764 whole entry): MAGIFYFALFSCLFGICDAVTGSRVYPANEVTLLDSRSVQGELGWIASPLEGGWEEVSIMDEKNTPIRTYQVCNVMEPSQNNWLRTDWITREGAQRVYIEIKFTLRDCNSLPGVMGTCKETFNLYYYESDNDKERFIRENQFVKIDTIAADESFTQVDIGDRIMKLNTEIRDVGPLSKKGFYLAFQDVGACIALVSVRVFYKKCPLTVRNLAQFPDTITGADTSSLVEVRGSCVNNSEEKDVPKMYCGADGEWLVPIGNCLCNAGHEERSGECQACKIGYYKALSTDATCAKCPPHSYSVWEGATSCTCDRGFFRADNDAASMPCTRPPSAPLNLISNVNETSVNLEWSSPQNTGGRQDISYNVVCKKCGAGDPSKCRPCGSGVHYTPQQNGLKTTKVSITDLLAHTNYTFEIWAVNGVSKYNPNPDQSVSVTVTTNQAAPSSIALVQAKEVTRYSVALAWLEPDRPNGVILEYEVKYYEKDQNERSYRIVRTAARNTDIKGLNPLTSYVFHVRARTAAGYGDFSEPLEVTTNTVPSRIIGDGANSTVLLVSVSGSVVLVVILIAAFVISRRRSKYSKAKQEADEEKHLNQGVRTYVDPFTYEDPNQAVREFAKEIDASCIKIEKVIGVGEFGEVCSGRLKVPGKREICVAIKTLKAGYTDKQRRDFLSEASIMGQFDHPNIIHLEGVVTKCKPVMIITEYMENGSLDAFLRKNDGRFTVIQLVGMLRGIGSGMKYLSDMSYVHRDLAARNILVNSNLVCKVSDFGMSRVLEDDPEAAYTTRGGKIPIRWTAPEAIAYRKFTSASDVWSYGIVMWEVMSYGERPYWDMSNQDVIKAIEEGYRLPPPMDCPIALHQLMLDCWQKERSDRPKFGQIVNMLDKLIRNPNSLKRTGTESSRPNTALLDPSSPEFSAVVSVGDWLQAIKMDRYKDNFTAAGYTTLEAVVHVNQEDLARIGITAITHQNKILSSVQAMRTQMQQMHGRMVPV
Chain of Casein kinase I isoform alpha (P48729 whole entry, canonical isoform): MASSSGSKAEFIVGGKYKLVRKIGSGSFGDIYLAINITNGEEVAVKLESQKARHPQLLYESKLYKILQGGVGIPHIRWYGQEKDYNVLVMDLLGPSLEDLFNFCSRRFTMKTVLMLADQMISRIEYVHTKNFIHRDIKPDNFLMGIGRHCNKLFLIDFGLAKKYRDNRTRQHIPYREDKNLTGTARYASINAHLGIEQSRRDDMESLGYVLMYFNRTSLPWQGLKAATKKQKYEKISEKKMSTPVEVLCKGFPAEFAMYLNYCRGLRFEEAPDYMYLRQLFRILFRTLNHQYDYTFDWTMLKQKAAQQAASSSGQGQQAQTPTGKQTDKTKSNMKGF

| Compound | Kd [1] | Kd [2] | Kd [3] | Kd (Ephrin type-A receptor 4) | Kd [4] | Kd [5] | Kd [6] | Kd [7] | Kd [8] | Kd [9] | Kd [10] | Kd [11] | Kd [12] | Kd [13] |
| --- | --- | --- | --- | --- | --- | --- | --- | --- | --- | --- | --- | --- | --- | --- |
| O=C(O)c1ccc2c(c1)nc(Nc1cccc(Cl)c1)c1ccncc12 [SILMITASERTIB] | > 30 µM (inactive) | > 30 µM (inactive) | > 30 µM (inactive) | > 30 µM (inactive) | > 30 µM (inactive) | > 30 µM (inactive) | > 30 µM (inactive) | > 30 µM (inactive) | > 30 µM (inactive) | > 30 µM (inactive) | > 30 µM (inactive) | > 30 µM (inactive) | > 30 µM (inactive) | > 30 µM (inactive) |
| O[C@H]1CC[C@H](Nc2ncc3nc(Nc4c(F)cc(F)cc4F)n([C@H]4CCOC4)c3n2)CC1 [TANZISERTIB] | > 30 µM (inactive) | > 30 µM (inactive) | > 30 µM (inactive) | > 30 µM (inactive) | > 30 µM (inactive) | > 30 µM (inactive) | > 30 µM (inactive) | > 30 µM (inactive) | > 30 µM (inactive) | > 30 µM (inactive) | > 30 µM (inactive) | > 30 µM (inactive) | > 30 µM (inactive) | > 30 µM (inactive) |
| S=C(NCc1ccc2c(c1)OCO2)N1CCN(c2ncnc3c2oc2ccccc23)CC1 [AMUVATINIB] | > 30 µM (inactive) | > 30 µM (inactive) | > 30 µM (inactive) | > 30 µM (inactive) | > 30 µM (inactive) | > 30 µM (inactive) | > 30 µM (inactive) | > 30 µM (inactive) | > 30 µM (inactive) | > 30 µM (inactive) | > 30 µM (inactive) | > 30 µM (inactive) | > 30 µM (inactive) | > 30 µM (inactive) |
| CN1CCN(c2nc(C3=C(c4c[nH]c5ccccc45)C(=O)NC3=O)c3ccccc3n2)CC1 [SOTRASTAURIN] | > 30 µM (inactive) | > 30 µM (inactive) | > 30 µM (inactive) | > 30 µM (inactive) | > 30 µM (inactive) | > 30 µM (inactive) | > 30 µM (inactive) | > 30 µM (inactive) | > 30 µM (inactive) | > 30 µM (inactive) | > 30 µM (inactive) | > 30 µM (inactive) | > 30 µM (inactive) | > 30 µM (inactive) |
| COc1cccc2cc(-c3nc([C@H]4CC[C@H](C(=O)O)CC4)n4ncnc(N)c34)[nH]c12 [OSI-027] | > 30 µM (inactive) | > 30 µM (inactive) | > 30 µM (inactive) | > 30 µM (inactive) | > 30 µM (inactive) | > 30 µM (inactive) | > 30 µM (inactive) | > 30 µM (inactive) | > 30 µM (inactive) | > 30 µM (inactive) | > 30 µM (inactive) | > 30 µM (inactive) | > 30 µM (inactive) | > 30 µM (inactive) |
| Cc1ccc(C(=O)Nc2ccc(Oc3cc4cnn(C)c4cc3-c3cn[nH]c3)c(F)c2)c(=O)n1-c1ccc(F)cc1 [MERESTINIB] | > 30 µM (inactive) | > 30 µM (inactive) | > 30 µM (inactive) | > 30 µM (inactive) | > 30 µM (inactive) | > 30 µM (inactive) | > 30 µM (inactive) | > 30 µM (inactive) | > 30 µM (inactive) | > 30 µM (inactive) | > 30 µM (inactive) | > 30 µM (inactive) | > 30 µM (inactive) | > 30 µM (inactive) |
| CC(C)(O)CC(=O)NCCn1ccc2ncnc(Nc3ccc(Oc4cccc(C(F)(F)F)c4)c(Cl)c3)c21 [TAK-285] | > 30 µM (inactive) | > 30 µM (inactive) | > 30 µM (inactive) | > 30 µM (inactive) | > 30 µM (inactive) | > 30 µM (inactive) | > 30 µM (inactive) | > 30 µM (inactive) | > 30 µM (inactive) | > 30 µM (inactive) | > 30 µM (inactive) | > 30 µM (inactive) | > 30 µM (inactive) | > 30 µM (inactive) |
| CNC(=O)c1cccc(-c2ccc3c(N4CCOC[C@@H]4C)nc(N4CCOC[C@@H]4C)nc3n2)c1 [VISTUSERTIB] | > 30 µM (inactive) | > 30 µM (inactive) | > 30 µM (inactive) | > 30 µM (inactive) | > 30 µM (inactive) | > 30 µM (inactive) | > 30 µM (inactive) | > 30 µM (inactive) | > 30 µM (inactive) | > 30 µM (inactive) | > 30 µM (inactive) | > 30 µM (inactive) | > 30 µM (inactive) | > 30 µM (inactive) |
| C=CC(=O)Nc1cc(Nc2nccc(-c3cn(C)c4ccccc34)n2)c(OC)cc1N(C)CCN(C)C [OSIMERTINIB] | > 30 µM (inactive) | > 30 µM (inactive) | > 30 µM (inactive) | > 30 µM (inactive) | > 30 µM (inactive) | > 30 µM (inactive) | > 30 µM (inactive) | > 30 µM (inactive) | > 30 µM (inactive) | > 30 µM (inactive) | > 30 µM (inactive) | > 30 µM (inactive) | > 30 µM (inactive) | > 30 µM (inactive) |
| COc1cc(Nc2ncc(F)c(Nc3ccc4c(n3)N(COP(=O)(O)O)C(=O)C(C)(C)O4)n2)cc(OC)c1OC [FOSTAMATINIB] | > 30 µM (inactive) | > 30 µM (inactive) | > 30 µM (inactive) | > 30 µM (inactive) | > 30 µM (inactive) | > 30 µM (inactive) | > 30 µM (inactive) | > 30 µM (inactive) | > 30 µM (inactive) | > 30 µM (inactive) | > 30 µM (inactive) | > 30 µM (inactive) | > 30 µM (inactive) | > 30 µM (inactive) |
| COc1ccc2c(OCc3nnc4ccc(-c5ccccc5)nn34)ccnc2c1 [AMG-208] | > 30 µM (inactive) | > 30 µM (inactive) | > 30 µM (inactive) | > 30 µM (inactive) | > 30 µM (inactive) | > 30 µM (inactive) | > 30 µM (inactive) | > 30 µM (inactive) | > 30 µM (inactive) | > 30 µM (inactive) | > 30 µM (inactive) | > 30 µM (inactive) | > 30 µM (inactive) | > 30 µM (inactive) |
| CC[C@@](C)(Nc1ccnc(-c2c[nH]c3ncccc23)n1)C(=O)NCC(F)(F)F [DECERNOTINIB] | > 30 µM (inactive) | 0.561 µM (active) | > 30 µM (inactive) | > 30 µM (inactive) | > 30 µM (inactive) | > 30 µM (inactive) | > 30 µM (inactive) | > 30 µM (inactive) | > 30 µM (inactive) | > 30 µM (inactive) | > 30 µM (inactive) | > 30 µM (inactive) | > 30 µM (inactive) | > 30 µM (inactive) |

Reference: ChEMBL document CHEMBL3991601, “The target landscape of clinical kinase drugs” (Science, 2017)
